Data: patent publication US20260022143A1, “Cyclic Peptide Inhibitors of IL-23” (JANSSEN PHARMACEUTICA NV, priority 2022, published 2026)
pIC50: −log10 of the molar value. Structures can show the parent of a compound that is named as a salt. Starred links: 1 amine or outer side, 2 acyl side, 3 side chain; linkers in the order of their positions; H or OH if unused. Positions of bridges follow the written chain, without caps; N, C: chain ends. Non-standard residues stand in square brackets, D forms with d. Residues, ends and D or L forms follow the SMILES beside them. *: point of attachment. Trp(7-(3-AcNH-Ph)) = CC(=O)Nc1cccc(-c2cccc3c(C[C@H](N)C(=O)O)c[nH]c23)c1; Me3N+(CH2)2O(CH2)2O(CH2)2CO = C[N+](C)(C)CCOCCOCCC(=O)*; CH2CH2OCH2CH2OCH2CH2NMe3+ = C[N+](C)(C)CCOCCOCC*; Trp(7-Me) = Cc1cccc2c(C[C@H](N)C(=O)O)c[nH]c12; X28 = CCCCCCCCCCCCCCCC[N+](C)(C)CCc1cn(CC*)nn1; X15 = CC(=O)N(C)C[C@H](N[*:1])C(=O)[*:2]; 2Nal = N[C@@H](Cc1ccc2ccccc2c1)C(=O)O; AEF = NCCOc1ccc(C[C@H](N)C(=O)O)cc1; 3Pal = N[C@@H](Cc1cccnc1)C(=O)O; Lys(Me) = CNCCCC[C@H](N)C(=O)O; X7 = COCCOCCOCCOCCOCCOCCC(=O)*; Pen = CC(C)(S)[C@H](N)C(=O)O; X57 = C[N+]1(C)CCC(CC*)CC1; Thp = NC1(C(=O)O)CCOCC1; X3 = C[N+](C)(C)CCCCC*; Aib = CC(C)(N)C(=O)O; Tfa = O=C(C(F)(F)F)*; Sar = CNCC(=O)O

What was measured:
IL-23R = biological target: T1, IL-23R (Homo sapiens, UniProt Q5VWK5); assay: IL23R Reporter Assay; format: cell-based; conditions: HEK293 cells containing IL-23R, IL-12RP1 and STAT-inducible firefly luciferase reporter; 10 ng/mL IL-23 (EC90); 5 h at 37° C.; read-out: IL23R Reporter Assay
T1 construct: host or cells: HEK293
T1 sequence (Q5VWK5 24-629): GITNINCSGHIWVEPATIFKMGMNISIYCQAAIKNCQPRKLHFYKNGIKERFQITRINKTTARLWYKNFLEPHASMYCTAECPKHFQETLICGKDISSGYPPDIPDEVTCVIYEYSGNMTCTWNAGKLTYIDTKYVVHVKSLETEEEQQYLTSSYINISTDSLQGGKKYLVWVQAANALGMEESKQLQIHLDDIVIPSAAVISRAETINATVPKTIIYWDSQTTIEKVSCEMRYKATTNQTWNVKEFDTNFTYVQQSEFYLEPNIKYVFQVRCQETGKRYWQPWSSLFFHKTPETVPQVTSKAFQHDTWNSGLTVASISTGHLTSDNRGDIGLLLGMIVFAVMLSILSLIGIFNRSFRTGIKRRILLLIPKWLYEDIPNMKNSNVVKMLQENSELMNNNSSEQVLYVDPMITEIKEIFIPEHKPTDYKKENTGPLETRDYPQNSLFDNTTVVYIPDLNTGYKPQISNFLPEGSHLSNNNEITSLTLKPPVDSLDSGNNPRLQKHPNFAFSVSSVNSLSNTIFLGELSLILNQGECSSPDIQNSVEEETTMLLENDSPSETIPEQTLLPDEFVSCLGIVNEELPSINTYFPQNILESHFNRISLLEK

[1] = Exposed Polar Surface Area (EPSA); format: physicochemical; conditions: SFC on Chirex 3014 column; sample 1 mM DMSO stock; read-out: EPSA
How it was run: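 Chirex 3014 column, 35 °C, 4 mL/min; CO2/MeOH + 20 mM NH4 formate, 5→60% modifier at 20%/min. UV/MS detection. EPSA (Å^2) from retention time vs 8-standard calibration line; duplicates; 1 mM DMSO stock injected undiluted.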

Compound | pIC50 (IL-23R) | EPSA [1] [A^2]
CCCCCCCCCCCCCCCC[N+](C)(C)CCc1cn(CCOc2ccc(C[C@H](NC(=O)[C@H]3NC(=O)[C@H](CCCCN(C)C(C)=O)NC(=O)[C@H](Cc4c[nH]c5c(C)cccc45)NC(=O)[C@H]([C@@H](C)O)NC(=O)[C@H](CC(=O)N(C)C)NC(=O)[C@@H](NC(=O)CCOCCOCC[N+](C)(C)C)C(C)(C)SSC3(C)C)C(=O)N[C@@H](Cc3ccc4ccccc4c3)C(=O)NC3(C(=O)N[C@@H](CCCCN(C)C(C)=O)C(=O)N[C@@H](CC(N)=O)C(=O)N[C@@H](Cc4cccnc4)C(=O)N(C)CC(=O)N(C)C)CCOCC3)cc2)nn1 [compound 291, cPEG3aCO-Pen(3)-N(N(Me)2)-T-7MeW-K(NMeAc)-Pen(3)-Y(OTzlChC16)-2Nal-THP-K(NMeAc)-N-3Pya-Sar-CON(Me)2] ({Me3N+(CH2)2O(CH2)2O(CH2)2CO}-[Pen]D(NMe2)T[Trp(7-Me)][Lys(Me)](Ac)[Pen]Y(X28)[2Nal][Thp][Lys(Me)](Ac)N[3Pal][Sar]-NMe2; disulfide 1-6 (inferred)) | 6.21 | 137
COCCOCCOCCOCCOCCOCCC(=O)N[C@H](CCCNC(=N)N)C(=O)N[C@@H]1C(=O)N[C@@H](CC(N)=O)C(=O)N[C@@H]([C@@H](C)O)C(=O)N[C@@H](Cc2c[nH]c3c(-c4cccc(NC(C)=O)c4)cccc23)C(=O)N[C@@H](CCCCNC(C)=O)C(=O)N[C@H](C(=O)N[C@@H](Cc2ccc(OCCN)cc2)C(=O)N[C@@H](Cc2ccc3ccccc3c2)C(=O)NC2(C(=O)N[C@@H](CCC(=O)O)C(=O)N[C@@H](CC(N)=O)C(=O)N[C@@H](Cc3cccnc3)C(=O)N(C)CC(N)=O)CCOCC2)C(C)(C)SSC1(C)C [compound 422] (X7-[dR][Pen]NT[Trp(7-(3-AcNH-Ph))]K(Ac)[Pen][AEF][2Nal][Thp]EN[3Pal][Sar]-NH2; disulfide 2-7 (inferred)) | 8.74 | 192
CC(=O)N(C)CCCC[C@@H]1NC(=O)[C@H](Cc2c[nH]c3c(C)cccc23)NC(=O)[C@H]([C@@H](C)O)NC(=O)[C@H](CC(=O)N(C)C)NC(=O)[C@@H](NC(=O)CCOCCOCC[N+](C)(C)C)C(C)(C)SSC(C)(C)[C@@H](C(=O)N[C@@H](Cc2ccc(OCCC3CC[N+](C)(C)CC3)cc2)C(=O)N[C@@H](Cc2ccc3ccccc3c2)C(=O)NC2(C(=O)N[C@@H](CCCCN(C)C(C)=O)C(=O)N[C@@H](CC(N)=O)C(=O)N[C@@H](Cc3cccnc3)C(=O)N(C)CC(=O)N(C)C)CCOCC2)NC1=O [compound 187, cPEG3aCO-Pen(3)-N(N(Me)2)-T-7MeW-K(NMeAc)-Pen(3)-4DMPEF-2Nal-THP-K(NMeAc)-N-3Pya-Sar-CON(Me)2] ({Me3N+(CH2)2O(CH2)2O(CH2)2CO}-[Pen]D(NMe2)T[Trp(7-Me)][Lys(Me)](Ac)[Pen]Y(X57)[2Nal][Thp][Lys(Me)](Ac)N[3Pal][Sar]-NMe2; disulfide 1-6) | 7.07 | 137
CC(=O)NCCCC[C@@H]1NC(=O)[C@H](Cc2c[nH]c3c(C)cccc23)NC(=O)[C@H]([C@@H](C)O)NC(=O)[C@H](CC(N)=O)NC(=O)[C@@H](NC(=O)C(F)(F)F)C(C)(C)SSC(C)(C)[C@@H](C(=O)N[C@@H](Cc2ccc(OCCN)cc2)C(=O)N[C@@H](Cc2ccc3ccccc3c2)C(=O)NC2(C(=O)N[C@@H](CCCCNC(C)=O)C(=O)N[C@@H](CC(N)=O)C(=O)N[C@@H](Cc3cccnc3)C(=O)N(C)C)CCOCC2)NC1=O [compound 63] (Tfa-[Pen]NT[Trp(7-Me)]K(Ac)[Pen][AEF][2Nal][Thp]K(Ac)N[3Pal]-NMe2; disulfide 1-6 (inferred)) | 7.60 | 157
CNC(=O)C[C@@H]1NC(=O)[C@@H](NC(=O)CCOCCOCC[N+](C)(C)C)C(C)(C)SSC(C)(C)[C@@H](C(=O)N[C@@H](Cc2ccc(OCCCCC[N+](C)(C)C)cc2)C(=O)N[C@@H](Cc2ccc3ccccc3c2)C(=O)NC2(C(=O)N[C@@H](CCCCN(C)C(C)=O)C(=O)N[C@@H](CC(N)=O)C(=O)N[C@@H](Cc3cccnc3)C(=O)N(C)CC(=O)N(C)C)CCOCC2)NC(=O)[C@H](CCCCN(C)C(C)=O)NC(=O)[C@H](Cc2c[nH]c3c(C)cccc23)NC(=O)[C@H]([C@@H](C)O)NC1=O [compound 300, cPEG3aCO-Pen(3)-N(N(Me))-T-7MeW-K(NMeAc)-Pen(3)-TMAPF-2Nal-THP-K(NMeAc)-N-3Pya-Sar-CON(Me)2] ({Me3N+(CH2)2O(CH2)2O(CH2)2CO}-[Pen]D(NHMe)T[Trp(7-Me)][Lys(Me)](Ac)[Pen]Y(X3)[2Nal][Thp][Lys(Me)](Ac)N[3Pal][Sar]-NMe2; disulfide 1-6) | 8.68 | 153
CC(=O)NCCCC[C@@H]1NC(=O)[C@H](Cc2c[nH]c3c(-c4cccc(NC(C)=O)c4)cccc23)NC(=O)[C@H]([C@@H](C)O)NC(=O)[C@H](CC(N)=O)NC(=O)[C@@H](NC(C)=O)C(C)(C)SSC(C)(C)[C@@H](C(=O)N[C@@H](Cc2ccc(OCCCCC[N+](C)(C)C)cc2)C(=O)N[C@@H](Cc2ccc3ccccc3c2)C(=O)NC2(C(=O)N[C@@H](CCCCNC(C)=O)C(=O)N[C@@H](CC(N)=O)C(=O)N[C@@H](Cc3cncc(C)c3)C(=O)N(C)CC(N)=O)CCOCC2)NC1=O [compound 503, MeCO-Pen(3)-N-T-7(3NAcPh)W-K(Ac)-Pen(3)-TMAPF-2Nal-THP-K(Ac)-N-5MePyridinAla-Sar-CONH2] | 8.08 | 169
CC(=O)NCCCC[C@@H]1NC(=O)[C@H](Cc2c[nH]c3c(-c4cccc(NC(C)=O)c4)cccc23)NC(=O)[C@H]([C@@H](C)O)NC(=O)[C@H](CC(N)=O)NC(=O)[C@@H](NC(=O)CCOCCOCC[N+](C)(C)C)C(C)(C)SSC(C)(C)[C@@H](C(=O)N[C@@H](Cc2ccc(OCCCCC[N+](C)(C)C)cc2)C(=O)N[C@@H](Cc2ccc3ccccc3c2)C(=O)NC2(C(=O)N[C@@H](CCCCN(C)C(C)=O)C(=O)N[C@@H](CC(N)=O)C(=O)N[C@@H](Cc3cncc(C)c3)C(=O)N(C)CC(N)=O)CCOCC2)NC1=O [compound 501, cPEG3aCO-Pen(3)-N-T-7(3NAcPh)W-K(Ac)-Pen(3)-TMAPF-2Nal-THP-K(NMeAc)-N-5MePyridinAla-Sar-CONH2] | 8.34 | 175
CC(=O)N(C)CCCC[C@@H]1NC(=O)[C@H](Cc2c[nH]c3c(C)cccc23)NC(=O)[C@H]([C@@H](C)O)NC(=O)[C@H](CC(=O)N(C)C)NC(=O)[C@@H](NC(=O)CCOCCOCC[N+](C)(C)C)C(C)(C)SSC(C)(C)[C@@H](C(=O)N[C@@H](Cc2ccc(OCCOCCOCC[N+](C)(C)C)cc2)C(=O)N[C@@H](Cc2ccc3ccccc3c2)C(=O)NC2(C(=O)N[C@@H](CN(C)C(C)=O)C(=O)N[C@@H](CC(N)=O)C(=O)N[C@@H](Cc3cccnc3)C(=O)N(C)CC(=O)N(C)C)CCOCC2)NC1=O [compound 419, cPEG3aCO-Pen(3)-N(N(Me)2)-T-7MeW-K(NMeAc)-Pen(3)-APEG3F-2Nal-THP-Dap(NMeAc)-N-3Pya-Sar-CON(Me)2] ({Me3N+(CH2)2O(CH2)2O(CH2)2CO}-[Pen]D(NMe2)T[Trp(7-Me)][Lys(Me)](Ac)[Pen]Y(CH2CH2OCH2CH2OCH2CH2NMe3+)[2Nal][Thp][X15]N[3Pal][Sar]-NMe2; disulfide 1-6) | 8.52 | 156
CC(=O)NCCCC[C@@H]1NC(=O)[C@H](Cc2c[nH]c3c(C)cccc23)NC(=O)[C@H]([C@@H](C)O)NC(=O)[C@H](CC(=O)N(C)C)NC(=O)[C@@H](NC(=O)CCOCCOCC[N+](C)(C)C)C(C)(C)SSC(C)(C)[C@@H](C(=O)N[C@@H](Cc2ccc(OCCCCC[N+](C)(C)C)cc2)C(=O)N[C@@H](Cc2ccc3ccccc3c2)C(=O)NC2(C(=O)N[C@@H](CN(C)C(C)=O)C(=O)N[C@@H](CC(N)=O)C(=O)N[C@@H](Cc3cccnc3)C(=O)N(C)CC(=O)N(C)C)CCOCC2)NC1=O [compound 415, cPEG3aCO-Pen(3)-N(N(Me)2)-T-7MeW-K(Ac)-Pen(3)-TMAPF-2Nal-THP-Dap(NMeAc)-N-3Pya-Sar-CON(Me)2] ({Me3N+(CH2)2O(CH2)2O(CH2)2CO}-[Pen]D(NMe2)T[Trp(7-Me)]K(Ac)[Pen]Y(X3)[2Nal][Thp][X15]N[3Pal][Sar]-NMe2; disulfide 1-6 (inferred)) | 8.36 | 148
Cc1cccc2c(C[C@@H]3NC(=O)[C@H]([C@@H](C)O)NC(=O)[C@H](CC(=O)N(C)C)NC(=O)[C@@H](NC(=O)CCOCCOCC[N+](C)(C)C)C(C)(C)SSC(C)(C)[C@@H](C(=O)N[C@@H](Cc4ccc(OCCN)cc4)C(=O)N[C@@H](Cc4ccc5ccccc5c4)C(=O)NC4(C(=O)NC(C)(C)C(=O)N[C@@H](CC(N)=O)C(=O)N[C@@H](Cc5cccnc5)C(=O)N(C)CC(=O)N(C)C)CCOCC4)NC(=O)C(C)(C)NC3=O)c[nH]c12 [compound 142, cPEG3aCO-Pen(3)-N(N(Me)2)-T-7MeW-AIB-Pen(3)-AEF-2Nal-THP-AIB-N-3Pya-Sar-CON(Me)2] ({Me3N+(CH2)2O(CH2)2O(CH2)2CO}-[Pen]D(NMe2)T[Trp(7-Me)][Aib][Pen][AEF][2Nal][Thp][Aib]N[3Pal][Sar]-NMe2; disulfide 1-6) | 8.18 | 166
